PubChem BioAssay (NCI)
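Where inhibition never reached the appropriate level, the endpoint shown equals the highest concentration tested. Otherwise, values were interpolated linearly from a five-concentration, 48-hour dose response in 96-well plates. TGI marks complete inhibition of growth.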

Columns and labels:
Assay in all cases: NCI tumour cell line growth inhibition, 48 h
786-0 renal = tested on: 786-0 renal
A498 renal = tested on: A498 renal
A549 NSCLC = tested on: A549 NSCLC
CAKI-1 renal = tested on: CAKI-1 renal
CCRF-CEM leukemia = tested on: CCRF-CEM leukemia
COLO 205 colon = tested on: COLO 205 colon
DU-145 prostate = tested on: DU-145 prostate
EKVX NSCLC = tested on: EKVX NSCLC
HCC-2998 colon = tested on: HCC-2998 colon
HCT-116 colon = tested on: HCT-116 colon
HCT-15 colon = tested on: HCT-15 colon
HL-60(TB) leukemia = tested on: HL-60(TB) leukemia
HOP-62 NSCLC = tested on: HOP-62 NSCLC
HS 578T breast = tested on: HS 578T breast
HT29 colon = tested on: HT29 colon
IGROV1 ovarian = tested on: IGROV1 ovarian
K-562 leukemia = tested on: K-562 leukemia
KM12 colon = tested on: KM12 colon
LOX IMVI melanoma = tested on: LOX IMVI melanoma
M14 melanoma = tested on: M14 melanoma
MALME-3M melanoma = tested on: MALME-3M melanoma
MCF7 breast = tested on: MCF7 breast
MDA-MB-231 breast = tested on: MDA-MB-231 breast
MDA-MB-435 = tested on: MDA-MB-435
MDA-N = tested on: MDA-N
MOLT-4 leukemia = tested on: MOLT-4 leukemia
NCI-H226 lung = tested on: NCI-H226 lung
NCI-H23 lung = tested on: NCI-H23 lung
NCI-H460 lung = tested on: NCI-H460 lung
NCI-H522 lung = tested on: NCI-H522 lung
NCI/ADR-RES ovarian = tested on: NCI/ADR-RES ovarian
OVCAR-3 ovarian = tested on: OVCAR-3 ovarian
OVCAR-4 ovarian = tested on: OVCAR-4 ovarian
OVCAR-5 ovarian = tested on: OVCAR-5 ovarian
OVCAR-8 ovarian = tested on: OVCAR-8 ovarian
PC-3 prostate = tested on: PC-3 prostate
RPMI-8226 leukemia = tested on: RPMI-8226 leukemia
RXF 393 renal = tested on: RXF 393 renal
SF-268 CNS = tested on: SF-268 CNS
SF-295 CNS = tested on: SF-295 CNS
SF-539 CNS = tested on: SF-539 CNS
SK-MEL-2 melanoma = tested on: SK-MEL-2 melanoma
SK-MEL-28 melanoma = tested on: SK-MEL-28 melanoma
SK-MEL-5 melanoma = tested on: SK-MEL-5 melanoma
SK-OV-3 ovarian = tested on: SK-OV-3 ovarian
SN12C renal = tested on: SN12C renal
SNB-19 CNS = tested on: SNB-19 CNS
SNB-75 CNS = tested on: SNB-75 CNS
SR leukemia = tested on: SR leukemia
SW-620 colon = tested on: SW-620 colon
T-47D breast = tested on: T-47D breast
U251 CNS = tested on: U251 CNS
UACC-257 melanoma = tested on: UACC-257 melanoma
UACC-62 melanoma = tested on: UACC-62 melanoma
UO-31 renal = tested on: UO-31 renal
ACHN renal = tested on: ACHN renal
BT-549 breast = tested on: BT-549 breast
HOP-92 NSCLC = tested on: HOP-92 NSCLC
TK-10 renal = tested on: TK-10 renal

With `CNC(=O)/C=C/C1=CN2C(=O)c3ccc(C)c(O)c3NC(OC)C2C1` (configuration not stated) the TGI (786-0 renal) was 9.15 µM, the TGI (A498 renal) was 0.713 µM and the TGI (A549 NSCLC) was over 100 µM. For the same compound, the TGI (CAKI-1 renal) was 2.63 µM, the TGI (CCRF-CEM leukemia) was over 4.64 µM and the TGI (COLO 205 colon) was under 0.0202 µM. For the same compound, the TGI (DU-145 prostate) was under 0.01 µM, the TGI (EKVX NSCLC) was under 0.0344 µM and the TGI (HCC-2998 colon) was under 0.0173 µM. It also gave a TGI (HCT-116 colon) of over 4.64 µM, a TGI (HCT-15 colon) of 4.48 µM and a TGI (HL-60(TB) leukemia) of 0.865 µM. The TGI (HOP-62 NSCLC) was 0.328 µM, the TGI (HS 578T breast) was under 0.0264 µM and the TGI (HT29 colon) was 3.29 µM. For the same compound, the TGI (IGROV1 ovarian) was over 100 µM, the TGI (K-562 leukemia) was over 100 µM and the TGI (KM12 colon) was under 0.0183 µM. For the same compound, the TGI (LOX IMVI melanoma) was 4.19 µM, the TGI (M14 melanoma) was 0.0191 µM and the TGI (MALME-3M melanoma) was 0.0448 µM. The TGI (MCF7 breast) was 16.6 µM, the TGI (MDA-MB-231 breast) was under 0.0397 µM and the TGI (MDA-MB-435) was under 0.0176 µM. For the same compound, the TGI (MDA-N) was under 0.0211 µM, the TGI (MOLT-4 leukemia) was over 8.39 µM and the TGI (NCI-H226 lung) was 0.0731 µM. It also gave a TGI (NCI-H23 lung) of under 0.0177 µM, a TGI (NCI-H460 lung) of 1.03 µM and a TGI (NCI-H522 lung) of under 0.0169 µM. The TGI (NCI/ADR-RES ovarian) was under 0.0323 µM, the TGI (OVCAR-3 ovarian) was 0.417 µM and the TGI (OVCAR-4 ovarian) was 0.0244 µM. For the same compound, the TGI (OVCAR-5 ovarian) was over 31 µM, the TGI (OVCAR-8 ovarian) was 0.192 µM and the TGI (PC-3 prostate) was 0.447 µM. The TGI (RPMI-8226 leukemia) was 16.2 µM, the TGI (RXF 393 renal) was under 0.01 µM and the TGI (SF-268 CNS) was 0.08 µM. The TGI (SF-295 CNS) was 1.07 µM, the TGI (SF-539 CNS) was under 0.0176 µM and the TGI (SK-MEL-2 melanoma) was under 0.01 µM. The TGI (SK-MEL-28 melanoma) was under 0.0131 µM, the TGI (SK-MEL-5 melanoma) was 0.186 µM and the TGI (SK-OV-3 ovarian) was over 8.66 µM. The TGI (SN12C renal) was 12.1 µM, the TGI (SNB-19 CNS) was 27.6 µM and the TGI (SNB-75 CNS) was under 0.0269 µM. The TGI (SR leukemia) was 59.8 nM, the TGI (SW-620 colon) was 24.4 µM and the TGI (T-47D breast) was under 0.0489 µM. For the same compound, the TGI (U251 CNS) was 1.67 µM, the TGI (UACC-257 melanoma) was under 0.0169 µM and the TGI (UACC-62 melanoma) was under 0.0154 µM. The TGI (UO-31 renal) was 0.265 µM.
In the case of `Nc1ccc(Oc2ccc(C34CC5C6CC7(c8ccc(Oc9ccc(N)cc9)cc8)CC5C(C3)C(C7)C6C4)cc2)cc1`, the TGI (786-0 renal) is reported as over 100 µM, the TGI (A498 renal) is reported as over 100 µM and the TGI (A549 NSCLC) is reported as over 100 µM. For the same compound, the TGI (ACHN renal) was over 100 µM, the TGI (BT-549 breast) was over 100 µM and the TGI (CAKI-1 renal) was over 100 µM. For the same compound, the TGI (CCRF-CEM leukemia) was over 100 µM, the TGI (COLO 205 colon) was over 100 µM and the TGI (DU-145 prostate) was over 100 µM. For the same compound, the TGI (EKVX NSCLC) was over 100 µM, the TGI (HCT-116 colon) was over 100 µM and the TGI (HCT-15 colon) was over 100 µM. The TGI (HL-60(TB) leukemia) was over 100 µM, the TGI (HOP-62 NSCLC) was over 100 µM and the TGI (HOP-92 NSCLC) was over 100 µM. The TGI (HS 578T breast) was over 100 µM, the TGI (HT29 colon) was over 100 µM and the TGI (IGROV1 ovarian) was over 100 µM. The TGI (K-562 leukemia) was over 100 µM, the TGI (KM12 colon) was over 100 µM and the TGI (LOX IMVI melanoma) was over 100 µM. For the same compound, the TGI (M14 melanoma) was over 100 µM, the TGI (MALME-3M melanoma) was over 100 µM and the TGI (MCF7 breast) was over 100 µM. It also gave a TGI (MDA-MB-231 breast) of over 100 µM, a TGI (MDA-MB-435) of over 100 µM and a TGI (MDA-N) of over 100 µM. For the same compound, the TGI (MOLT-4 leukemia) was over 100 µM, the TGI (NCI-H226 lung) was over 100 µM and the TGI (NCI-H23 lung) was over 100 µM. The TGI (NCI-H460 lung) was over 100 µM, the TGI (NCI-H522 lung) was over 100 µM and the TGI (NCI/ADR-RES ovarian) was over 100 µM. It also gave a TGI (OVCAR-3 ovarian) of over 100 µM, a TGI (OVCAR-4 ovarian) of over 100 µM and a TGI (OVCAR-5 ovarian) of over 100 µM. The TGI (OVCAR-8 ovarian) was over 100 µM, the TGI (PC-3 prostate) was over 100 µM and the TGI (RPMI-8226 leukemia) was over 100 µM. The TGI (RXF 393 renal) was over 100 µM, the TGI (SF-268 CNS) was over 100 µM and the TGI (SF-295 CNS) was over 100 µM. It also gave a TGI (SK-MEL-2 melanoma) of over 100 µM, a TGI (SK-MEL-28 melanoma) of over 100 µM and a TGI (SK-MEL-5 melanoma) of over 100 µM. The TGI (SN12C renal) was over 100 µM, the TGI (SNB-19 CNS) was over 100 µM and the TGI (SW-620 colon) was over 100 µM. For the same compound, the TGI (T-47D breast) was over 100 µM, the TGI (TK-10 renal) was over 100 µM and the TGI (U251 CNS) was over 100 µM. It also gave a TGI (UACC-257 melanoma) of over 100 µM, a TGI (UACC-62 melanoma) of over 100 µM and a TGI (UO-31 renal) of over 100 µM.
For `COC1(OC)CCN(Cc2ccccc2)C1=O`, the TGI (786-0 renal) was 15.7 µM, the TGI (A498 renal) was 44 µM and the TGI (A549 NSCLC) was 32.3 µM. It also gave a TGI (ACHN renal) of 19.7 µM, a TGI (BT-549 breast) of 31 µM and a TGI (CAKI-1 renal) of 13 µM. It also gave a TGI (CCRF-CEM leukemia) of 6.3 µM, a TGI (COLO 205 colon) of 12.5 µM and a TGI (DU-145 prostate) of 29.2 µM. The TGI (EKVX NSCLC) was 29.7 µM, the TGI (HCC-2998 colon) was 34 µM and the TGI (HCT-116 colon) was 13.9 µM. For the same compound, the TGI (HCT-15 colon) was 38.6 µM, the TGI (HL-60(TB) leukemia) was 4.15 µM and the TGI (HOP-62 NSCLC) was 38.6 µM. It also gave a TGI (HOP-92 NSCLC) of 23.4 µM, a TGI (HS 578T breast) of over 100 µM and a TGI (HT29 colon) of 21.4 µM. The TGI (IGROV1 ovarian) was 26.8 µM, the TGI (K-562 leukemia) was over 37.9 µM and the TGI (KM12 colon) was 32.2 µM. The TGI (LOX IMVI melanoma) was 16.6 µM, the TGI (M14 melanoma) was 23 µM and the TGI (MALME-3M melanoma) was over 100 µM. For the same compound, the TGI (MCF7 breast) was 25.3 µM, the TGI (MDA-MB-231 breast) was 38.8 µM and the TGI (MDA-MB-435) was 29.8 µM. It also gave a TGI (MDA-N) of 22.6 µM, a TGI (MOLT-4 leukemia) of over 100 µM and a TGI (NCI-H226 lung) of 38.9 µM. The TGI (NCI-H23 lung) was 43.8 µM, the TGI (NCI-H460 lung) was 41.2 µM and the TGI (NCI-H522 lung) was over 100 µM. The TGI (NCI/ADR-RES ovarian) was 55.3 µM, the TGI (OVCAR-3 ovarian) was 23.7 µM and the TGI (OVCAR-4 ovarian) was 30.6 µM. It also gave a TGI (OVCAR-5 ovarian) of 31.8 µM, a TGI (OVCAR-8 ovarian) of 17.9 µM and a TGI (PC-3 prostate) of 27.8 µM. For the same compound, the TGI (RPMI-8226 leukemia) was 42.8 µM, the TGI (RXF 393 renal) was 26.4 µM and the TGI (SF-268 CNS) was over 52.8 µM. It also gave a TGI (SF-295 CNS) of 53.9 µM, a TGI (SF-539 CNS) of 28.6 µM and a TGI (SK-MEL-2 melanoma) of 34 µM. It also gave a TGI (SK-MEL-28 melanoma) of 23.3 µM, a TGI (SK-MEL-5 melanoma) of 29.2 µM and a TGI (SK-OV-3 ovarian) of over 100 µM. The TGI (SN12C renal) was 22.1 µM, the TGI (SNB-19 CNS) was 34.9 µM and the TGI (SNB-75 CNS) was 30.6 µM. For the same compound, the TGI (SW-620 colon) was 7.28 µM, the TGI (T-47D breast) was 18.8 µM and the TGI (TK-10 renal) was 29.7 µM. The TGI (U251 CNS) was 34.1 µM, the TGI (UACC-257 melanoma) was 28.6 µM and the TGI (UACC-62 melanoma) was 26.1 µM. For the same compound, the TGI (UO-31 renal) was 22.8 µM.
